Drawing on ChEMBL document CHEMBL1122740, “Bicyclic lactam inhibitors of angiotensin converting enzyme” (J Med Chem, 1984), this text covers IC50 for five compounds.

In the test the target is T1, Angiotensin-converting enzyme (Oryctolagus cuniculus, UniProt P12822).
T1 sequence (P12822 whole entry): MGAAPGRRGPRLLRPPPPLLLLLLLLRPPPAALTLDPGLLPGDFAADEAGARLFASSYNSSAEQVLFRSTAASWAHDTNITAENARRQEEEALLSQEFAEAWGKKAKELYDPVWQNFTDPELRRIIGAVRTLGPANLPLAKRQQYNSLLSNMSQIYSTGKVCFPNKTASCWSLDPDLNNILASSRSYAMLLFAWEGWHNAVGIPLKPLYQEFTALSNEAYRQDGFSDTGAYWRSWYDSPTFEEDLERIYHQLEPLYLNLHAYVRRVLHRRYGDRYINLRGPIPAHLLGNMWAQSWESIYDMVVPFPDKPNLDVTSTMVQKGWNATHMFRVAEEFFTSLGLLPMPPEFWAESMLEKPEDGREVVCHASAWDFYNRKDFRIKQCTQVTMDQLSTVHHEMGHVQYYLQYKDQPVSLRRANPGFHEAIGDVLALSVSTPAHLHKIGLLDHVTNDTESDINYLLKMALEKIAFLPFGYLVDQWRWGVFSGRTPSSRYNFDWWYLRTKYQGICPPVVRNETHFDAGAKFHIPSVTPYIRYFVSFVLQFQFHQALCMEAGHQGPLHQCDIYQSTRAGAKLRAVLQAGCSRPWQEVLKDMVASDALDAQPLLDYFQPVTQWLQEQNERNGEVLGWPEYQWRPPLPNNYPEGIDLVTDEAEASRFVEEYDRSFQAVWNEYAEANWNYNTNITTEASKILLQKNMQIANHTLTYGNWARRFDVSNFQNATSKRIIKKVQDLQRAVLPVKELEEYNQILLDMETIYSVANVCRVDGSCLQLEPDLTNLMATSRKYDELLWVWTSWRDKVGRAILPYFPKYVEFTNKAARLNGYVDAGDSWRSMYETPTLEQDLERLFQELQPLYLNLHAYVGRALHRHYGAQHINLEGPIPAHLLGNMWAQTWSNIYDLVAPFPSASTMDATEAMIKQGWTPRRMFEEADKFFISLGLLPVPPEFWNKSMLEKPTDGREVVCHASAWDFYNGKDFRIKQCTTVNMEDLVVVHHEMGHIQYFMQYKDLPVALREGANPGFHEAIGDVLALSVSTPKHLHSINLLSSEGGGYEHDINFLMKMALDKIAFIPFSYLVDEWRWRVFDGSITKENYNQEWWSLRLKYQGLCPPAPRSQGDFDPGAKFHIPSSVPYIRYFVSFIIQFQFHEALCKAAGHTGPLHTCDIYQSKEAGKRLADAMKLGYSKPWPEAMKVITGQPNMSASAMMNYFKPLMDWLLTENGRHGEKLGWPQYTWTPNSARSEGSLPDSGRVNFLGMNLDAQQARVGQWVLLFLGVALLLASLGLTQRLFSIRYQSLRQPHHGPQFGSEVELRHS
The experiment in a line: Ability to inhibit Angiotensin I converting enzyme was determined.

Values joined by “and” are separate entries in the source; they are usually repeats but may differ in a detail not shown here. Identical values can stand only once.

Compound `O=C(O)CN1CCCCC(CS)C1=O` (stereo not given) displayed an IC50 of 170 nM.
As to `O=C(O)CN1C(=O)C(CS)CCc2ccccc21` (stereo not given), inhibition was half-maximal at 9 nM (IC50).
The same measure for `CC(C(=O)O)N1CCCCCC(CS)C1=O` (stereo not given): 53 nM.
To `O=C(O)CN1C(=O)C(CS)CCCc2ccccc21` (stereo not given) belongs 4 nM.
Take `O=C(O)CN1CCCC(CS)C1=O` (stereo not given): the concentration for half-maximal inhibition (IC50) was 1500 nM and 3400 nM.
